Values joined by “and” are separate entries in the source; they are usually repeats but may differ in a detail not shown here. Equal entries are not always repeated. “Also recorded” adds a separate entry of the source. Where two headings read alike, the source gives them in different places.
Tests used:
[1] = tested on: human M-5 melanoma cells; assay: Initial rate of cell proliferation (IRCP), M-5 cells; type: cell-based
Protocol: The study was conducted on two continuous cell cultures growing in the form of a monolayer in a tissue culture (on murine B-16 melanoma cells and human M-5 melanoma cells). […] Dicarbamine (D) was transferred into stock solution (1.000 μM), sterilized through filters with 0.22 μm pore diameter and then diluted to concentrations 0.01 and 1.0 μM.
The effect of preparations on cells was assessed on the basis of initial rate of cell proliferation (IRCP). This index (IRCP), which is usually called colony rate growth, was determined by numbering the number of cells in micro colonies during the first days following affection in “test” (with preparations) and “control” (without preparations) dishes, by analyzing 50 colonies in each of them. Each “point” included […] three Petri dishes with growing cell colonies in adding specific concentrations of preparations under study. Growth rate of colonies (in %) was calculated according to the formula: […]
Cell numbers in micro colonies were calculated for every “point”. Toxicity of preparations in the selected range of concentrations was judged by cell survival, which was determined by the ratio between numbers of the colonies grown in “test” and “control” dishes.

[2] = Peripheral blood leukocytes formula under Cyclophosphamide; type: in vivo, mice; settings: mouse, in vivo
Text: Two groups of mice are used.

[3] = Complete blood analysis of individual ovarian cancer patients; type: in vivo, human; settings: for Platelets: in 10^9/L (unit assumed)
Protocol: (§1) The effect of Dicarbamine was studied in 13 patients with stage III-IV ovarian cancer who underwent 77 courses of the chemotherapy according to the scheme: 400 mg/m^2 Carboplatin i.v. drop-wise, once +600 mg/m^2 Cyclophosphan i.v. drop-wise, once; the courses were repeated in 28 days. Dicarbamine was prescribed daily at dose 100 mg orally after meals beginning 5 days prior to the first course and then for three weeks. Dosing duration was 26 days, course dose being 2600 mg. Dicarbamine was given again 5 days prior to the second chemotherapy course, and dosing was continued for 21 days. Total duration of Dicarbamine intake during two the chemotherapy courses was 52 days.
Hematopoiesis parameters were assessed dynamically many times before and after conducted the chemotherapy (control) as well as dynamically before and after Dicarbamine dosing in the test group. Below hematopoiesis parameters in individual patients who received the chemotherapy according to the indicated scheme with Dicarbamine or without it are presented.

[4] = Hematological toxicity according to WHO in ovarian cancer patients; type: in vivo, human
Protocol: as §1
Hematological toxicity (leukopenia, neutropenia, thrombocytopenia) was assessed in 13 patients who received 77 courses of the chemotherapy with Dicarbamine as compared with the group of 7 patients who received 25-27 courses of the chemotherapy without Dicarbamine (control).

[5] = tested on: stage III-IV ovarian cancer; assay: Efficacy of therapy after two chemotherapy courses; type: in vivo, human
Protocol: Efficacy of therapy was assessed in groups of patients following two courses of the chemotherapy with or without Dicarbamine according to the above described scheme. Efficacy was assessed according to the generally accepted parameters: CR—complete remission, PR—partial remission, SB—stabilization; and Progr. —progression.

[6] = with Dicarbamine, Day 0, before starting Dicarbamine
[7] = with Dicarbamine, Day 5, before starting course 1 of CT
[8] = with Dicarbamine, Day 21, after termination of Dicarbamine intake
[9] = with Dicarbamine, Day 33, before course 2 of CT
[10] = with Dicarbamine, course 2, Day 28 after course 1 of CT
[11] = with Dicarbamine, course 2, Day 33
[12] = with Dicarbamine, course 2, Day 54
[13] = with Dicarbamine, course 2, Day 61
[14] = vs chemotherapy without Dicarbamine

In the case of `O=C(O)CCCC(=O)NCCc1c[nH]cn1` [Dicarbamine], the “Initial rate of cell proliferation (% cells/colony relative to the control)” value ([1]; D 0.01 μM, 48 hours) is reported as 82.4% and 84.2%, the “Initial rate of cell proliferation” value ([1]; D 0.01 μM, 72 hours) is reported as 73.6% and the “Initial rate of cell proliferation” value ([1]; D 0.01 μM, 96 hours) is reported as 70.2%. For the same molecule, the “Initial rate of cell proliferation” value ([1]; D 1.0 μM, 48 hours) was 69.0%, the “Initial rate of cell proliferation” value ([1]; D 1.0 μM, 72 hours) was 50.0% and the “Initial rate of cell proliferation” value ([1]; D 1.0 μM, 96 hours) was 49.1%. For the same molecule, the “Initial rate of cell proliferation” value ([1]; IN 7.0 IU/ml + D 0.01 μM, 48 hours) was 79.1%, the “Initial rate of cell proliferation” value ([1]; IN 7.0 IU/ml + D 0.01 μM, 72 hours) was 49.1% and the “Initial rate of cell proliferation” value ([1]; IN 7.0 IU/ml + D 0.01 μM, 96 hours) was 46.9%. For the same molecule, the “Initial rate of cell proliferation” value ([1]; IN 7.0 IU/ml + D 1.0 μM, 48 hours) was 54.7%, the “Initial rate of cell proliferation” value ([1]; IN 7.0 IU/ml + D 1.0 μM, 72 hours) was 36.9% and the “Initial rate of cell proliferation” value ([1]; IN 7.0 IU/ml + D 1.0 μM, 96 hours) was 33.3%. The “Initial rate of cell proliferation” value ([1]; IN 70.0 IU/ml + D 0.01 μM, 48 hours) was 40.5%, the “Initial rate of cell proliferation” value ([1]; IN 70.0 IU/ml + D 0.01 μM, 72 hours) was 34.9% and the “Initial rate of cell proliferation” value ([1]; IN 70.0 IU/ml + D 0.01 μM, 96 hours) was 31.0% and 31.7%. For the same molecule, the “Initial rate of cell proliferation” value ([1]; IN 70.0 IU/ml + D 1.0 μM, 48 hours) was 30.7%, the “Initial rate of cell proliferation” value ([1]; IN 70.0 IU/ml + D 1.0 μM, 72 hours) was 24.0% and 24.5% and the “Initial rate of cell proliferation” value ([1]; IN 70.0 IU/ml + D 1.0 μM, 96 hours) was 23.9%. For the same molecule, the “toxicity according to the survival index” value ([1]; M-5 cells) was “does not show toxicity”, the Myelocytes [2] was 0 in mm^3 and the Leukocytes ([3]; chemotherapy + Dicarbamine 100 mg daily, individual patients, course 1, Day 0, before starting Dicarbamine) was 5.9 10^9/l and 7.4 10^9/l and 6.6 10^9/l. The “timing of the third course of CT” value ([3]; chemotherapy with Dicarbamine, individual patients) was “in time; also recorded: at term”, the Neutrophils [3, 6] was 4.2 10^9/l and 5.7 10^9/l and 5.0 10^9/l and the Platelets [3, 6] was 170 and 174. The Leukocytes [3, 7] was 5.5 10^9/l and 7.2 10^9/l and 5.9 10^9/l, the Neutrophils [3, 7] was 4.0 10^9/l and 5.0 10^9/l and 4.2 10^9/l and the Platelets [3, 7] was 164 and 165 and 172. The Leukocytes [3, 8] was 4.7 10^9/l and 6.6 10^9/l and 5.5 10^9/l, the Neutrophils [3, 8] was 3.3 10^9/l and 5.2 10^9/l and 4.4 10^9/l and the Platelets [3, 8] was 160 and 162 and 166. For the same molecule, the Leukocytes [3, 9] was 4.0 10^9/l and 5.2 10^9/l and 5.0 10^9/l, the Neutrophils [3, 9] was 2.9 10^9/l and 3.8 10^9/l and 3.4 10^9/l and the Platelets [3, 9] was 158 and 167 and 164. For the same molecule, the Neutrophils [3, 10] was 3.2 10^9/l and 5.2 10^9/l and 3.0 10^9/l, the Leukocytes ([3]; with Dicarbamine, course 2, Day 28 after course 1 of CT, before starting Dicarbamine) was 4.9 10^9/l and 7.8 10^9/l and 5.6 10^9/l and the Platelets [3, 10] was 180 and 165 and 170. For the same molecule, the Neutrophils [3, 11] was 3.3 10^9/l and 6.0 10^9/l and 3.2 10^9/l, the Leukocytes ([3]; with Dicarbamine, course 2, Day 33, before starting course of CT) was 5.0 10^9/l and 8.2 10^9/l and 5.8 10^9/l and the Platelets [3, 11] was 170 and 160. For the same molecule, the Neutrophils [3, 12] was 3.1 10^9/l and 6.2 10^9/l and 3.4 10^9/l, the Leukocytes ([3]; with Dicarbamine, course 2, Day 54, after termination of Dicarbamine intake) was 4.2 10^9/l and 7.6 10^9/l and 5.7 10^9/l and the Platelets [3, 12] was 160 and 162 and 176. For the same molecule, the Neutrophils [3, 13] was 3.0 10^9/l and 5.8 10^9/l and 3.2 10^9/l, the Leukocytes ([3]; with Dicarbamine, course 2, Day 61, before course 3 of CT) was 4.2 10^9/l and 7.2 10^9/l and 5.5 10^9/l and the Platelets [3, 13] was 160 and 157 and 165. For the same molecule, the Leukopenia ([4]; WHO degree 0) was 7.7%, the “Leukopenia, number” value ([4]; WHO degree 0) was 6 and the Neutropenia ([4]; WHO degree 0) was 31.3%. The “Neutropenia, number” value ([4]; WHO degree 0) was 21, the Thrombocytopenia ([4]; WHO degree 0) was 35.5% and the “Thrombocytopenia, number” value ([4]; WHO degree 0) was 27. For the same molecule, the Leukopenia ([4]; WHO degree I) was 23.3%, the “Leukopenia, number” value ([4]; WHO degree I) was 18 and the Neutropenia ([4]; WHO degree I) was 17.9%. For the same molecule, the “Neutropenia, number” value ([4]; WHO degree I) was 12, the Thrombocytopenia ([4]; WHO degree I) was 42.1% and the “Thrombocytopenia, number” value ([4]; WHO degree I) was 32. The Leukopenia ([4]; WHO degree II) was 55.8%, the “Leukopenia, number” value ([4]; WHO degree II) was 43 and the Neutropenia ([4]; WHO degree II) was 34.3%. For the same molecule, the “Neutropenia, number” value ([4]; WHO degree II) was 23, the Thrombocytopenia ([4]; WHO degree II) was 13.1% and the “Thrombocytopenia, number” value ([4]; WHO degree II) was 10. For the same molecule, the Leukopenia ([4]; WHO degree III) was 12.9%, the “Leukopenia, number” value ([4]; WHO degree III) was 10 and the Neutropenia ([4]; WHO degree III) was 7.4%. The “Neutropenia, number” value ([4]; WHO degree III) was 5, the Thrombocytopenia ([4]; WHO degree III) was 7.8% and the “Thrombocytopenia, number” value ([4]; WHO degree III) was 6. The Leukopenia ([4]; WHO degree III + IV) was 12.9%, the “Leukopenia, number” value ([4]; WHO degree III + IV) was 10 and the Neutropenia ([4]; WHO degree III + IV) was 16.4%. For the same molecule, the “Neutropenia, number” value ([4]; WHO degree III + IV) was 11, the Thrombocytopenia ([4]; WHO degree III + IV) was 9.1% and the “Thrombocytopenia, number” value ([4]; WHO degree III + IV) was 7. For the same molecule, the “Leukopenia, number” value ([4]; WHO degree IV) was 0, the Neutropenia ([4]; WHO degree IV) was 8.9% and the “Neutropenia, number” value ([4]; WHO degree IV) was 6. For the same molecule, the Thrombocytopenia ([4]; WHO degree IV) was 1.3%, the “Thrombocytopenia, number” value ([4]; WHO degree IV) was 1 and the “decrease of hematological toxicity on the basis of leukopenia” value [4, 14] was 1.8 fold. The “decrease of hematological toxicity on the basis of neutropenia” value [4, 14] was 2.6 fold, the “decrease of hematological toxicity on the basis of thrombocytopenia” value [4, 14] was 2.2 fold and the CR [5] was 26.6%. For the same molecule, the “CR, number of patients” value [5] was 4, the PR [5] was 46.6% and the “PR, number of patients” value [5] was 7. For the same molecule, the Progr. [5] was 13.3%, the “Progr., number of patients” value [5] was 2 and the SB [5] was 13.5%. The “SB, number of patients” value [5] was 2, the “tumor growth control (CR+PR)” value [5] was 73.2% and the Terms of death (CPH 50 + Cysplatin 2 mg/kg) was “no”. The Total leukocyte number (CPH 50 + Cysplatin 2 mg/kg, day 0) was 11.30 ± 2.30 thousand in mm^3, the Total leukocyte number (CPH 50 + Cysplatin 2 mg/kg, day 3) was 6.70 ± 1.15 thousand in mm^3 and the Total leukocyte number (CPH 50 + Cysplatin 2 mg/kg, day 5) was 17.00 ± 5.17 thousand in mm^3. The Total leukocyte number (CPH 50 + Cysplatin 2 mg/kg, day 7) was 14.50 ± 2.00 thousand in mm^3, the Total leukocyte number (CPH 50 + Cysplatin 2 mg/kg, day 21) was 12.40 ± 0.99 thousand in mm^3 and the Terms of death (CPH 100 + Cysplatin 4 mg/kg) was “no”. The Total leukocyte number (CPH 100 + Cysplatin 4 mg/kg, day 0) was 11.30 ± 2.30 thousand in mm^3, the Total leukocyte number (CPH 100 + Cysplatin 4 mg/kg, day 3) was 4.14 ± 0.60 thousand in mm^3 and the Total leukocyte number (CPH 100 + Cysplatin 4 mg/kg, day 5) was 11.40 ± 1.10 thousand in mm^3. For the same molecule, the Total leukocyte number (CPH 100 + Cysplatin 4 mg/kg, day 7) was 14.90 ± 1.32 thousand in mm^3, the Total leukocyte number (CPH 100 + Cysplatin 4 mg/kg, day 21) was 11.80 ± 1.32 thousand in mm^3 and the Total leukocyte number (CPH 200 + Cysplatin 8 mg/kg i.p. once (Dicarbamine group: 0.5 mg/kg daily 20 days), day 0) was 11.30 ± 2.30 thousand in mm^3. It also gave a Total leukocyte number (CPH 200 + Cysplatin 8 mg/kg, day 3) of 2.32 ± 0.49 thousand in mm^3, a Total leukocyte number (CPH 200 + Cysplatin 8 mg/kg, day 5) of 6.60 ± 0.90 thousand in mm^3 and a Total leukocyte number (CPH 200 + Cysplatin 8 mg/kg, day 7) of 10.40 ± 1.54 thousand in mm^3. It also gave a Total leukocyte number (mouse, in vivo) of 12.30 ± 1.56 thousand in mm^3.
